“And” between values parts separate entries of the source, which are not always exact repeats. Equal values may be shown once. Inconclusive results and toxic doses are left out. Square brackets hold non-standard residues; d marks the D form. Peptide text beside a SMILES is read from it. * marks the point of attachment. ξ: configuration not given here. ξF = NC(Cc1ccccc1)C(=O)O; Bz = O=C(c1ccccc1)*
System: P388 leukemia ip, CD2F1 mice, survival T/C
Assay: NCI In Vivo Anticancer Drug Screen. Data for tumor model P388 Leukemia (intraperitoneal) in CD2F1 (CDF1) mice
Details: endpoint: median survival time, higher = longer survival
Procedure, shortened: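 Mice carrying the transplanted tumor received test compound or vehicle. Survival was recorded in each group, and the value is the treated-group measurement divided by that of the vehicle-treated control group.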

[1] = dose: 25.0 mg/kg/injection, schedule: Q01DX005 (ip), vehicle: Klucel (hydroxypropylcellulose) (HPC)
[2] = dose: 50.0 mg/kg/injection, schedule: Q01DX005 (ip), vehicle: Klucel (hydroxypropylcellulose) (HPC)
[3] = dose: 200.0 mg/kg/injection, schedule: Q01DX005 (ip), vehicle: Klucel (hydroxypropylcellulose) (HPC)
[4] = dose: 60.0 mg/kg/injection, schedule: Q01DX005 (ip), vehicle: saline with Tween-80
[5] = dose: 120.0 mg/kg/injection, schedule: Q01DX005 (ip), vehicle: saline with Tween-80
[6] = dose: 240.0 mg/kg/injection, schedule: Q01DX005 (ip), vehicle: saline with Tween-80
[7] = dose: 50.0 mg/kg/injection, schedule: Q01DX005 (ip), vehicle: saline with Tween-80
[8] = dose: 100.0 mg/kg/injection, schedule: Q01DX005 (ip), vehicle: saline with Tween-80
[9] = dose: 100.0 mg/kg/injection, schedule: Q01DX005 (ip), vehicle: Klucel (hydroxypropylcellulose) (HPC)
[10] = dose: 50.0 mg/kg/injection, schedule: Q01DX009 (ip), vehicle: saline with Tween-80
[11] = dose: 100.0 mg/kg/injection, schedule: Q01DX009 (ip), vehicle: saline with Tween-80
[12] = dose: 200.0 mg/kg/injection, schedule: Q01DX009 (ip), vehicle: saline with Tween-80
[13] = dose: 12.5 mg/kg/injection, schedule: Q01DX005 (ip), vehicle: Klucel (hydroxypropylcellulose) (HPC)

O=C(CNNC(=O)c1ccncc1)Nc1ccc(S(=O)(=O)c2ccc(NC(=O)CNNC(=O)c3ccncc3)cc2)cc1
T/C [1]: 89 % of control | T/C [2]: 90 % of control and 91 % of control | T/C [3]: 86 % of control

O=C(N/C(=C\c1ccc(Cl)cc1)c1nc2ccccc2s1)c1ccccc1
T/C [4]: 111 % of control | T/C [5]: 113 % of control | T/C [6]: 113 % of control

CCOC(=O)/N=C(/NC(=O)OCC)N1CCN(c2ccnc3cc(Cl)ccc23)CC1
T/C [7]: 98 % of control | T/C [8]: 97 % of control | T/C (dose: 200.0 mg/kg/injection, schedule: Q01DX005 (ip), vehicle: saline with Tween-80): 91 % of control

C/C=C1/CN2CC[C@@]34c5cc([C@]67C8CCN9C/C(=C/C)[C@H](CC96)C(C(=O)OC)N7c6ccccc68)c(OC)cc5N(C)[C@H]3C2CC1C4C(=O)OC (stereo partly specified)
T/C (dose: 5.25 mg/kg/injection, schedule: Q01DX005 (ip), vehicle: Klucel (hydroxypropylcellulose) (HPC)): 104 % of control | T/C (dose: 10.5 mg/kg/injection, schedule: Q01DX005 (ip), vehicle: Klucel (hydroxypropylcellulose) (HPC)): 98 % of control | T/C (dose: 21.0 mg/kg/injection, schedule: Q01DX005 (ip), vehicle: Klucel (hydroxypropylcellulose) (HPC)): 90 % of control | T/C (dose: 42.0 mg/kg/injection, schedule: Q01DX005 (ip), vehicle: Klucel (hydroxypropylcellulose) (HPC)): 96 % of control

Nc1ccc2c(c1)C1C(C3C2C2(Cl)C(Cl)=C(Cl)C3(Cl)C2(Cl)Cl)C2(Cl)C(Cl)=C(Cl)C1(Cl)C2(Cl)Cl (stereo unspecified)
T/C (dose: 12.5 mg/kg/injection, schedule: Q01DX009 (ip), vehicle: saline): 97 % of control | T/C (dose: 25.0 mg/kg/injection, schedule: Q01DX009 (ip), vehicle: saline): 109 % of control | T/C (dose: 50.0 mg/kg/injection, schedule: Q01DX009 (ip), vehicle: saline): 100 % of control and 95 % of control | T/C (dose: 100.0 mg/kg/injection, schedule: Q01DX009 (ip), vehicle: saline): 100 % of control | T/C (dose: 200.0 mg/kg/injection, schedule: Q01DX009 (ip), vehicle: saline): 98 % of control

ONC1=Nc2ccccc2OCCOc2ccccc2N=C1NO
T/C [2]: 100 % of control | T/C [9]: 100 % of control | T/C [3]: 96 % of control

C=CCC1(C(C)C(O)c2cc(OC)c(OC)c(OC)c2)CC(O)C=CC12OCCO2 (stereo unspecified)
T/C (dose: 1.25 mg/kg/injection, schedule: Q01DX005 (ip), vehicle: acid diluted with saline): 94 % of control | T/C (dose: 2.5 mg/kg/injection, schedule: Q01DX005 (ip), vehicle: acid diluted with saline): 103 % of control | T/C (dose: 5.0 mg/kg/injection, schedule: Q01DX005 (ip), vehicle: acid diluted with saline): 100 % of control | T/C (dose: 10.0 mg/kg/injection, schedule: Q01DX005 (ip), vehicle: acid diluted with saline): 100 % of control

CCCC12C=C(OC)C(=O)C(C1=O)C(c1ccc3c(c1)OCO3)C2C (stereo unspecified)
T/C (dose: 8.75 mg/kg/injection, schedule: Q01DX005 (ip), vehicle: Klucel (hydroxypropylcellulose) (HPC)): 118 % of control | T/C (dose: 17.5 mg/kg/injection, schedule: Q01DX005 (ip), vehicle: Klucel (hydroxypropylcellulose) (HPC)): 110 % of control | T/C (dose: 35.0 mg/kg/injection, schedule: Q01DX005 (ip), vehicle: Klucel (hydroxypropylcellulose) (HPC)): 100 % of control

CC1(C)Oc2cc3oc(=O)ccc3c3c2C2C1CCC(C)(O3)C2O (stereo unspecified)
T/C [2]: 102 % of control | T/C [9]: 96 % of control | T/C [3]: 105 % of control

COc1cc(NC(=O)c2ccc(NC(=O)c3ccc(N)cc3)cc2)c(OC)cc1N=Nc1ccc(N=Nc2ccc3cc(S(=O)(=O)O)cc(S(=O)(=O)O)c3c2)c(C)c1
T/C (dose: 50.0 mg/kg/injection, schedule: Q01DX005 (ip), vehicle: saline): 106 % of control (2×) and 111 % of control | T/C (dose: 100.0 mg/kg/injection, schedule: Q01DX005 (ip), vehicle: saline): 106 % of control and 109 % of control and 115 % of control | T/C (dose: 200.0 mg/kg/injection, schedule: Q01DX005 (ip), vehicle: saline): 114 % of control and 115 % of control and 123 % of control | T/C (dose: 400.0 mg/kg/injection, schedule: Q01DX005 (ip), vehicle: saline): 116 % of control and 117 % of control

CS(=O)C/C(=C/CCCl)c1ccc(F)cc1 (stereo unspecified)
T/C [10]: 101 % of control | T/C [11]: 105 % of control | T/C [12]: 96 % of control

CN=C(NC)c1ccc(NC(=O)c2cc(C(=O)Nc3ccc(C(=NC)NC)cc3)cc([N+](=O)[O-])c2)cc1
T/C (dose: 6.25 mg/kg/injection, schedule: Q01DX005 (ip), vehicle: Klucel (hydroxypropylcellulose) (HPC)): 107 % of control | T/C [13]: 119 % of control

COc1cc([C@@H]2c3cc4c(c(OC)c3C[C@H]3COC(=O)[C@@H]32)OCO4)cc(OC)c1OC
T/C [13]: 100 % of control | T/C [1]: 103 % of control | T/C [2]: 103 % of control and 111 % of control

O=C1CCC(C2(O)c3ccccc3-c3ccccc32)C(=O)N1 (stereo unspecified)
T/C [4]: 95 % of control | T/C [5]: 96 % of control | T/C [6]: 95 % of control

S=C1N(c2ccc(Cl)cc2)C2=C(N=Nc3ccccc3Cl)C(=Nc3ccccc3S2)N1c1ccccn1
T/C [8]: 108 % of control

O=C(CNC(=O)c1ccccc1)NCC(=O)NC(Cc1ccccc1)C(=O)O (stereo not drawn) (Bz-Gly-Gly-[ξF]-OH)
T/C [7]: 96 % of control | T/C [8]: 100 % of control

CC1CN=C(c2ccc(NC(=O)c3ccc(C(=O)Nc4ccc(C5=NCC(C)N5)cc4)cc3)cc2)N1 (stereo unspecified)
T/C (dose: 6.25 mg/kg/injection, schedule: Q01DX009 (ip), vehicle: suspension in saline): 184 % of control | T/C (dose: 10.0 mg/kg/injection, schedule: Q01DX010 (ip), vehicle: saline): 209 % of control | T/C (dose: 12.5 mg/kg/injection, schedule: Q01DX009 (ip), vehicle: suspension in saline): 245 % of control | T/C (dose: 15.0 mg/kg/injection, schedule: Q01DX010 (ip), vehicle: saline): 231 % of control | T/C (dose: 22.0 mg/kg/injection, schedule: Q01DX010 (ip), vehicle: saline): 154 % of control | T/C (dose: 25.0 mg/kg/injection, schedule: Q01DX009 (ip), vehicle: suspension in saline): 294 % of control | T/C (dose: 33.0 mg/kg/injection, schedule: Q01DX010 (ip), vehicle: saline): 209 % of control | T/C (dose: 50.0 mg/kg/injection, schedule: Q01DX009 (ip), vehicle: suspension in saline): 166 % of control | T/C (dose: 100.0 mg/kg/injection, schedule: Q01DX009 (ip), vehicle: suspension in saline): 154 % of control

CC(=O)O[C@@H]1C[C@H]2C(C)(C)C(=O)C=C[C@]2(C)[C@H]2CC[C@]3(C)C(=CC(=O)O[C@]3(O)c3ccoc3)[C@@]21C
T/C (dose: 1.0 mg/kg/injection, schedule: Q01DX005 (ip), vehicle: Klucel (hydroxypropylcellulose) (HPC)): 95 % of control | T/C (dose: 2.0 mg/kg/injection, schedule: Q01DX005 (ip), vehicle: Klucel (hydroxypropylcellulose) (HPC)): 100 % of control | T/C (dose: 4.0 mg/kg/injection, schedule: Q01DX005 (ip), vehicle: Klucel (hydroxypropylcellulose) (HPC)): 95 % of control | T/C (dose: 8.0 mg/kg/injection, schedule: Q01DX005 (ip), vehicle: Klucel (hydroxypropylcellulose) (HPC)): 95 % of control

Brc1ccc(N=C=C(c2ccccc2)c2ccccc2)cc1
T/C [10]: 95 % of control | T/C [11]: 100 % of control | T/C [12]: 104 % of control

CCCC/C(=N\NC(N)=NC)c1ccccc1
T/C (dose: 25.0 mg/kg/injection, schedule: Q04DX002 (ip), vehicle: saline with Tween-80): 99 % of control | T/C (dose: 50.0 mg/kg/injection, schedule: Q04DX002 (ip), vehicle: saline with Tween-80): 100 % of control

O=C1c2cccc3c2C2(O)c4c1cccc4C(=O)c1cccc(c12)C3=O
T/C [10]: 100 % of control | T/C [11]: 90 % of control

O=C1Nc2ccccc2/C1=C\c1ccccc1O
T/C (dose: 25.0 mg/kg/injection, schedule: Q01DX009 (ip), vehicle: Klucel (hydroxypropylcellulose) (HPC)): 98 % of control | T/C (dose: 50.0 mg/kg/injection, schedule: Q01DX009 (ip), vehicle: Klucel (hydroxypropylcellulose) (HPC)): 96 % of control | T/C (dose: 100.0 mg/kg/injection, schedule: Q01DX009 (ip), vehicle: Klucel (hydroxypropylcellulose) (HPC)): 95 % of control | T/C (dose: 200.0 mg/kg/injection, schedule: Q01DX009 (ip), vehicle: Klucel (hydroxypropylcellulose) (HPC)): 98 % of control | T/C (dose: 400.0 mg/kg/injection, schedule: Q01DX009 (ip), vehicle: Klucel (hydroxypropylcellulose) (HPC)): 88 % of control

O=C(O)/C=C/S(=O)(=O)c1ccc(Cl)cc1
T/C (dose: 5.0 mg/kg/injection, schedule: Q01DX009 (ip), vehicle: Klucel (hydroxypropylcellulose) (HPC)): 89 % of control | T/C (dose: 10.0 mg/kg/injection, schedule: Q01DX009 (ip), vehicle: Klucel (hydroxypropylcellulose) (HPC)): 98 % of control | T/C (dose: 20.0 mg/kg/injection, schedule: Q01DX009 (ip), vehicle: Klucel (hydroxypropylcellulose) (HPC)): 96 % of control | T/C (dose: 40.0 mg/kg/injection, schedule: Q01DX009 (ip), vehicle: Klucel (hydroxypropylcellulose) (HPC)): 99 % of control

C=C(F)F
T/C [2]: 95 % of control | T/C [9]: 101 % of control | T/C [3]: 103 % of control
